Measurements from ChEMBL document CHEMBL1201862, “PubChem BioAssay data set” (2004).
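Values below derive from 48-hour exposures of cells grown in 96-well plates, with endpoints linearly interpolated between the two concentrations bracketing the appropriate inhibition level. GI50 is the concentration that inhibits growth by half.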 The source made the active and inactive calls. No stated cut-off is given here; in the data, active = GI50 up to about 1.1 µM and inactive = higher.

Columns and labels:
Assay in all cases: NCI tumour cell line growth inhibition, 48 h
[1] = test system: A549
[2] = test system: CAKI-1
[3] = test system: CCRF-CEM
[4] = test system: DLD-1
[5] = test system: HL-60
[6] = test system: HOP-62
[7] = test system: HT-29
[8] = test system: MCF7
[9] = test system: NCI-H23
[10] = test system: NCI-H522
[11] = test system: NCI/ADR-RES
[12] = test system: OVCAR-8
[13] = test system: RXF 393
[14] = test system: SF-539
[15] = test system: SK-MEL-2
[16] = test system: SK-OV-3
[17] = test system: SN12C
[18] = test system: UO-31

Measured: GI50

Cc1nc(O)nc(O)c1/C=C/C(=O)O
inactive: [1] > 1000 µM | [2] > 1000 µM | [3] > 1000 µM | [4] > 1000 µM | [5] > 1000 µM | [6] > 1000 µM | [7] > 1000 µM | [8] > 1000 µM | [9] > 1000 µM | [10] > 1000 µM | [11] > 1000 µM | [12] > 1000 µM | [13] > 1000 µM | [14] > 1000 µM | [15] > 1000 µM | [16] > 1000 µM | [17] > 1000 µM | [18] > 1000 µM
